The results in this text go back to ChEMBL document CHEMBL6096668, “Design and functional studies of xylene-based cyclic mimetics of SOCS1 protein” (Eur J Med Chem, 2025).

For orientation: Kd means a measure of binding affinity in units of concentration. For orientation: IC50 means the midpoint of a concentration-inhibition curve.

Series [1] concerns the target T1, Tyrosine-protein kinase JAK2 (Homo sapiens, UniProt O60674). As to the kind of experiment: Binding affinity to his-tagged JAK2 (826 to 1132 residues) (unknown origin) assessed as dissociation constant incubated for 30 mins by MST analysis.
Series [2] addresses T1, Tyrosine-protein kinase JAK2. As to the kind of experiment: Inhibition of JAK2 (unknown origin) using srctide as substrate preincubated with compound for 1 hr followed by substrate addition and measured after 15 mins in presence of ATP by LC-MS analysis.
A short description of series [3]: Stability of the compound in fetal bovine serum measured after 30 h by RP-HPLC analysis. To be noted: cattle.

Numbered stars: 1 amine (or outer) side, 2 acyl side, 3 side chain; on linkers, the order of the positions; unused ones are H or OH. Bridge positions count the residues as written; N and C are the ends. Square brackets hold non-standard residues; d marks the D form. Peptide text beside a SMILES is read from it. * marks the point of attachment. 1Nal = N[C@@H](Cc1cccc2ccccc12)C(=O)O; TBMB = c1c(C[*:1])cc(C[*:3])cc1C[*:2]; Acm = CC(=O)NC*

T1 sequence (O60674 whole entry, the tested form may be a part): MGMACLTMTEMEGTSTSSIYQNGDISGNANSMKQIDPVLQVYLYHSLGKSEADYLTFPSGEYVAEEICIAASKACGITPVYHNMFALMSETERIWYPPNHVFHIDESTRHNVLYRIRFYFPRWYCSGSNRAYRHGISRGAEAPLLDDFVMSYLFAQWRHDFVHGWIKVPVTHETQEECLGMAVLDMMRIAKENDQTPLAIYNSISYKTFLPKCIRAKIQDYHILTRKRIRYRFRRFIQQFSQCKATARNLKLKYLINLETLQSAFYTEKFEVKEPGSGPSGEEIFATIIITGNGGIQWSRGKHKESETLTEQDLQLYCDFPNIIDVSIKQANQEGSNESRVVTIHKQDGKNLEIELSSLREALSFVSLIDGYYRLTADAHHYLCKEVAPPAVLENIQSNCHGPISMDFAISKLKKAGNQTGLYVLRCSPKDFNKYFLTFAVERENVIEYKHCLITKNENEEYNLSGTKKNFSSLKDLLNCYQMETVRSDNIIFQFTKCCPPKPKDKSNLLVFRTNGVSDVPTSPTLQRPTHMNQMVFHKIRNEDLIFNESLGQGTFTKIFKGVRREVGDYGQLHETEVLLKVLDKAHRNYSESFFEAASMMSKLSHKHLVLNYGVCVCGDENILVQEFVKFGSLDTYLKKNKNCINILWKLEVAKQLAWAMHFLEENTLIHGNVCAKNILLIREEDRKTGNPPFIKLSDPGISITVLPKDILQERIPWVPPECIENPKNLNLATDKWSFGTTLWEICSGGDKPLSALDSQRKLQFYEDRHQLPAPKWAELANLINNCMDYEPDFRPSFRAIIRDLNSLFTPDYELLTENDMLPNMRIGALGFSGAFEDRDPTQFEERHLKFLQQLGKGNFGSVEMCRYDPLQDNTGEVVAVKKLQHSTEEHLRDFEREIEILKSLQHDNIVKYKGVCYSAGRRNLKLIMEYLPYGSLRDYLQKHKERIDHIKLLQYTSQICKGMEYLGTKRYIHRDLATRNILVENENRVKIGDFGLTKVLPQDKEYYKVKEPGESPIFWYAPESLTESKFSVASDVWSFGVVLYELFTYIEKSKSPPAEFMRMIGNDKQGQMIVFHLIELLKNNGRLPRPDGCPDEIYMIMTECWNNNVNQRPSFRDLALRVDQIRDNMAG

As for `CC(=O)NCSC[C@@H]1NC(=O)[C@H]([C@@H](C)O)NC(=O)[C@H](NC(C)=O)CSCc2cccc(c2)CSC[C@@H](C(=O)N[C@@H](Cc2cnc[nH]2)C(N)=O)NC(=O)[C@H](CCCNC(=N)N)NC(=O)[C@H](Cc2cccc3ccccc23)NC(=O)[C@H]([C@@H](C)O)NC(=O)[C@H](CCC(N)=O)NC(=O)[C@H](CCCNC(=N)N)NC1=O`, in series [1], the Kd was found to be 6.8 µM. The 50% inhibitory concentration (IC50) in series [2] amounted to 2.2 µM.

Consider `CC(=O)NCSC[C@@H]1NC(=O)[C@H]([C@@H](C)O)NC(=O)[C@@H](NC(C)=O)CSCc2cc3cc(c2)CSC[C@H](NC(=O)[C@H](CCCNC(=N)N)NC1=O)C(=O)N[C@@H]([C@@H](C)O)C(=O)N[C@@H](Cc1cccc2ccccc12)C(=O)N[C@@H](CCCNC(=N)N)C(=O)N[C@H](C(=O)N[C@@H](Cc1cnc[nH]1)C(N)=O)CSC3` (Ac-CTC(Acm)RCT[1Nal]RCH-NH2; linker 1-5-9 via TBMB), for which the equilibrium dissociation constant (Kd) in series [1] came out at 130 µM. Also, the 50% inhibitory concentration (IC50) in series [2] was found to be 100 µM.

Consider `CC(=O)NCSC[C@@H]1NC(=O)[C@H]([C@@H](C)O)NC(=O)[C@@H](NC(C)=O)CC(=O)NCCCC[C@@H](C(=O)N[C@@H](Cc2cnc[nH]2)C(N)=O)NC(=O)[C@H](CCCNC(=N)N)NC(=O)[C@H](Cc2cccc3ccccc23)NC(=O)[C@H]([C@@H](C)O)NC(=O)[C@H](CCC(N)=O)NC(=O)[C@H](CCCNC(=N)N)NC1=O` (Ac-DTC(Acm)RQT[1Nal]RKH-NH2; lactam 1-9), for which, in series [3], the Stability entry is given as “Stable”.

For the molecule `COc1cc(/C=C/C(=O)CC(=O)/C=C/c2ccc(O)c(OC)c2)ccc1O` [CURCUMIN], in series [1], the Kd is ~90 µM.
